We go through three molecules from patent US20240100038A1, “USE OF THE AXL INHIBITOR SLC-391 AS ANTIVIRAL THERAPEUTIC AGENT” (SignalChem Lifesciences Corporation, priority 2021, published 2024).

One series deals with ZEB1. As to conditions: Stewart 2020; cited from earlier work.
For the next series, the system named is Ebola virus. The following applies: animal models (Dowall 2016); cited from earlier work.
Series [1] concerns SARS-CoV-2. As to conditions: cited from earlier work.
The test system of series [2] is virus infection of wild type bone marrow-derived dendritic cells. As to conditions: wild type bone marrow-derived dendritic cells (Bhattacharyya 2013); cited from earlier work.
The subject of series [3] is MER. The following applies: cultured cell assays; cited from earlier work.
The subject of series [4] is AXL. As to conditions: cultured cell assays; cited from earlier work.
Another series deals with ROS1 (Homo sapiens, UniProt P08922). Briefly: Radiometric phosphotransferase assay, panel of 320 protein kinases. Format: biochemical. The text has this: (§1) The selectivity of SLC-391 was further evaluated against a panel of 320 protein kinases from the human kinome using a radiometric phosphotransferase assay.
Chain of ROS1 (P08922 28-2347): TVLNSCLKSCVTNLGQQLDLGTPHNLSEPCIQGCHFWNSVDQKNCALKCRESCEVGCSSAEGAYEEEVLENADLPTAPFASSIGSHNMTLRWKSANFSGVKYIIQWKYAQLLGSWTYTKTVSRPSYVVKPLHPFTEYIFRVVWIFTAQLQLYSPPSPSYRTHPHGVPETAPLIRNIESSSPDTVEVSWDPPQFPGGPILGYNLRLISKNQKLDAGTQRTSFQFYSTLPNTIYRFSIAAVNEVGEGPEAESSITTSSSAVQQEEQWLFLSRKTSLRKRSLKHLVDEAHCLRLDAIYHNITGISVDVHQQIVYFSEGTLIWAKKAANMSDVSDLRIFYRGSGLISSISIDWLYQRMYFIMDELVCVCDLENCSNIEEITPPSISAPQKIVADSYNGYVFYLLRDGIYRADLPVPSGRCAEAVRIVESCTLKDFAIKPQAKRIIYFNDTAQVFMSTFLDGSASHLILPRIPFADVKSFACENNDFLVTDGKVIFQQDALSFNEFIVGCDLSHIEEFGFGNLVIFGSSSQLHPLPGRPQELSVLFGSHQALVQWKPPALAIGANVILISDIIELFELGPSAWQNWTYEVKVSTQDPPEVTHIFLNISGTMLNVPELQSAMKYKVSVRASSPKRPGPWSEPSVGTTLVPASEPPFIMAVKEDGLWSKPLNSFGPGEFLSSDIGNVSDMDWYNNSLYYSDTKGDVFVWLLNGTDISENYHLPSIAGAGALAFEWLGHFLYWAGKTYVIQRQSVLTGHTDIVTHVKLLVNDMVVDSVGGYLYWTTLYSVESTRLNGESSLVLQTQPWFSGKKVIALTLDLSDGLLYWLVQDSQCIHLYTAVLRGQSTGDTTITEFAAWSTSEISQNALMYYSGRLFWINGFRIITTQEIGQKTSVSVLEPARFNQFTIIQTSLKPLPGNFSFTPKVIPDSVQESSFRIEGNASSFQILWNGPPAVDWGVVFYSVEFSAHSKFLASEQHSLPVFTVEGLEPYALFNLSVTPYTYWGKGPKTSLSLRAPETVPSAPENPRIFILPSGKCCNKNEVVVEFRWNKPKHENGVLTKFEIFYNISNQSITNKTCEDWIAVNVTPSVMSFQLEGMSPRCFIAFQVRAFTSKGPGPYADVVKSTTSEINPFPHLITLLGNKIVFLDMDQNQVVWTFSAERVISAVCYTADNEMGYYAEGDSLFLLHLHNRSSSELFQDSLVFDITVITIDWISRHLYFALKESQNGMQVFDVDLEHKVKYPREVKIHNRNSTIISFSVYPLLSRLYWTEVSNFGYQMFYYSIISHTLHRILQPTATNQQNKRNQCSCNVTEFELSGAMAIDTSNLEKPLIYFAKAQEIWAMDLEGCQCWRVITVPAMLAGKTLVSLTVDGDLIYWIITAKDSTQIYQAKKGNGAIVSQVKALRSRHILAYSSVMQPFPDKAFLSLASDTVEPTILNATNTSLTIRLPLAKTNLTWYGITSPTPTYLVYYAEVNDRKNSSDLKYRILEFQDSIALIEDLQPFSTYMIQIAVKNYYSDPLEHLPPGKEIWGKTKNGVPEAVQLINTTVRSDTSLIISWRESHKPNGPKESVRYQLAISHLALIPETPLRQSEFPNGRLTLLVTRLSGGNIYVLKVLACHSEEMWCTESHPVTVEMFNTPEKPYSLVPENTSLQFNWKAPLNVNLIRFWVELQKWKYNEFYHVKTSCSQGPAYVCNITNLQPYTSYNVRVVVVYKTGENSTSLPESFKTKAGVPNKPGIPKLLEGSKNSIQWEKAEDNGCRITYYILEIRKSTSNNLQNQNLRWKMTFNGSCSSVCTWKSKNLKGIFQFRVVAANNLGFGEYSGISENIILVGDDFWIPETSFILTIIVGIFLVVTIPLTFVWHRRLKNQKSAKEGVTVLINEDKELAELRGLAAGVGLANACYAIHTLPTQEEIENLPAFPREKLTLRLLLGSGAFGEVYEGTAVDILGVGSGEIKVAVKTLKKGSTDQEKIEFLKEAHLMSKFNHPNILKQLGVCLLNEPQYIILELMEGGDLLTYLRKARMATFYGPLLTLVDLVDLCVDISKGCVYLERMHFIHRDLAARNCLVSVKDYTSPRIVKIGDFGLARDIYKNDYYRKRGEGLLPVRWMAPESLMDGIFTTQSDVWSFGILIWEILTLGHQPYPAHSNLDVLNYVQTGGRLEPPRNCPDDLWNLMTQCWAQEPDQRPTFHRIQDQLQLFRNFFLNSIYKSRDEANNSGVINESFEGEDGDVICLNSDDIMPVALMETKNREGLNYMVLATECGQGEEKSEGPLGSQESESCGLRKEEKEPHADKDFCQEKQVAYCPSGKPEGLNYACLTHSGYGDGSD
A further series addresses c-MET (Homo sapiens, UniProt P08581). The description is as above. Format: biochemical.
Description: as §1

For another series, the target named is EPHA6 (Homo sapiens, UniProt Q9UF33). Described as above. Format: biochemical.
Description: as §1

A further series concerns the target ALK1 (Homo sapiens, UniProt P37023). The description is as above. Format: biochemical.
Description: as §1

In a further series the target is NUAK1 (Homo sapiens, UniProt O60285). The description is as above. Format: biochemical.
Description: as §1

A further series deals with RET (Homo sapiens, UniProt P07949). The description is as above. Format: biochemical.
Description: as §1

In another series the target is Aurora C (Homo sapiens, UniProt Q9UQB9). The description is as above. Format: biochemical.
Chain of Aurora C (Q9UQB9 whole entry): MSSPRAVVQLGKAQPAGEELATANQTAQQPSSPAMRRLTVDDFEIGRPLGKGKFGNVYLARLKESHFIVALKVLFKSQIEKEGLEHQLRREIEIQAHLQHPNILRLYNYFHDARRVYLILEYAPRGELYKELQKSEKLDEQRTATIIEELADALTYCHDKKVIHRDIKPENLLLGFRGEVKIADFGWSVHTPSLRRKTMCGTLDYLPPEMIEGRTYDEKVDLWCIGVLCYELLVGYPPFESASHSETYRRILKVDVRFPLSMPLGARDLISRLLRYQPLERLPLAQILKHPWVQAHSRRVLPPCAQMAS
Description: as §1

For series [5], the target named is T1, AXL (Homo sapiens, UniProt P30530). In words: In vitro BaF3 cell assay, panel of 93 receptor tyrosine kinases. Format: cell-based. More on the design: expressed in transfected cells; host or cells: BaF3. The following applies: at 100 nM.
T1 sequence (P30530 26-894): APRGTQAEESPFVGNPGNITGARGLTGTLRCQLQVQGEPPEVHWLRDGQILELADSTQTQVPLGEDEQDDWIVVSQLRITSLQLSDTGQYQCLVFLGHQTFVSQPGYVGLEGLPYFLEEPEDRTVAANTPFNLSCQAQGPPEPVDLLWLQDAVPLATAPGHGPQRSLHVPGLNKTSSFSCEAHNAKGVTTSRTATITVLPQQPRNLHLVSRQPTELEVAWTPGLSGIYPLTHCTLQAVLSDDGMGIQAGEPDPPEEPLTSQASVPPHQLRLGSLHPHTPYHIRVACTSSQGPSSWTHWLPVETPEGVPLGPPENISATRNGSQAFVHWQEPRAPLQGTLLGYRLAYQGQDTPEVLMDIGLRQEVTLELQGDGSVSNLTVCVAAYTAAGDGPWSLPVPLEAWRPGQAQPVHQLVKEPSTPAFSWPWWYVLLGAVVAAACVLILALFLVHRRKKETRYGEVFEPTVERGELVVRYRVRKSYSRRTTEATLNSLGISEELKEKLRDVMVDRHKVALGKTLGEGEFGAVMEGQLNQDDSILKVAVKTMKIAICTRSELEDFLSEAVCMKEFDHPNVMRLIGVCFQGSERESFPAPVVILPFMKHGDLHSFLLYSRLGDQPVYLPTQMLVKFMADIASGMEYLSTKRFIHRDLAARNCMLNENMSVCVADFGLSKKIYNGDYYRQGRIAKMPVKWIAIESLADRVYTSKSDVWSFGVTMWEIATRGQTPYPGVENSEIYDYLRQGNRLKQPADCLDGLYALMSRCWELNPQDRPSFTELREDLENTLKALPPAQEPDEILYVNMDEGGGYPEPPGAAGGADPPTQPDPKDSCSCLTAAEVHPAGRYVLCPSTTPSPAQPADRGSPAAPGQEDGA
The conditions of series [6]: in vivo, po.
A short description of series [7]: In vivo rat micronucleus assay. The following applies: 70 mg/kg/day (highest dose).
The next series relates to 4T1. In words: Cellular proliferation, 4T1. Format: cell-based. As to conditions: Mus musculus.
Series [8] relates to Salmonella tester strain TA100. Briefly: Ames screening test, TA100. As to conditions: TA100, with and without liver S9 metabolic activation. Format: cell-based. The text has this:
(§2) In genotoxicity screening studies, SLC-391 was negative in Salmonella tester strains TA98 and TA100 (Ames screening test) with and without liver S9 metabolic activation.

Another series deals with A549 cell invasion. Briefly: Cell invasion. Format: cell-based. The following applies: Homo sapiens.
For another series, the system named is phosphorylated Akt. Briefly: Phosphorylated Akt in tumor xenograft samples. Format: in vivo. As to conditions: oral administration. The text has this:
(§3) Significant in vivo pharmacology studies for SLC-391 have been completed in support of its oncology indication. The bioavailability of SLC-391 in vivo when administered orally (PO) (twice-daily [BID] and once-daily [QD]) were studied.

The next series deals with A549 cells. Briefly: Anchorage-independent cell proliferation. Format: cell-based, human. As to conditions: at 1 μM in A549 cells.
Another series relates to tumor growth. In words: In vivo tumor growth inhibition, oral administration.
Description: as §3

In another series the target is TYRO3 (Homo sapiens, UniProt Q06418). Briefly: TYRO3 kinase inhibition. Format: biochemical.
Description: as §1

Series [9] in a line: 28-day oral gavage GLP toxicology study in Beagle dogs.
A short description of series [10]: Phase I study in subjects with solid tumors (SLC-391-101). The following applies: clinical drug product, oral.
Another series can be described thus: in vivo. As to conditions: both, Sprague-Dawley, rat.
Another series concerns the target T2, VEGFR1 (Homo sapiens, UniProt P17948).
T2 construct: expressed in transfected cells; host or cells: BaF3
Briefly: In vitro BaF3 cell assay, panel of 93 receptor tyrosine kinases. Format: cell-based. The following applies: at 100 nM.

Series [11] is described as follows: in vitro. The following applies: human.
Another series addresses T3, FGFR3 (Homo sapiens, UniProt P22607).
T3 construct: expressed in transfected cells; host or cells: BaF3
Briefly: In vitro BaF3 cell assay, panel of 93 receptor tyrosine kinases. Format: cell-based. As to conditions: at 100 nM.

For series [12], the target named is T4, MER (Homo sapiens, UniProt Q12866). The series is described as above. Format: cell-based. On the set-up: expressed in transfected cells; host or cells: BaF3. As to conditions: at 100 nM.
T4 sequence (Q12866 21-999): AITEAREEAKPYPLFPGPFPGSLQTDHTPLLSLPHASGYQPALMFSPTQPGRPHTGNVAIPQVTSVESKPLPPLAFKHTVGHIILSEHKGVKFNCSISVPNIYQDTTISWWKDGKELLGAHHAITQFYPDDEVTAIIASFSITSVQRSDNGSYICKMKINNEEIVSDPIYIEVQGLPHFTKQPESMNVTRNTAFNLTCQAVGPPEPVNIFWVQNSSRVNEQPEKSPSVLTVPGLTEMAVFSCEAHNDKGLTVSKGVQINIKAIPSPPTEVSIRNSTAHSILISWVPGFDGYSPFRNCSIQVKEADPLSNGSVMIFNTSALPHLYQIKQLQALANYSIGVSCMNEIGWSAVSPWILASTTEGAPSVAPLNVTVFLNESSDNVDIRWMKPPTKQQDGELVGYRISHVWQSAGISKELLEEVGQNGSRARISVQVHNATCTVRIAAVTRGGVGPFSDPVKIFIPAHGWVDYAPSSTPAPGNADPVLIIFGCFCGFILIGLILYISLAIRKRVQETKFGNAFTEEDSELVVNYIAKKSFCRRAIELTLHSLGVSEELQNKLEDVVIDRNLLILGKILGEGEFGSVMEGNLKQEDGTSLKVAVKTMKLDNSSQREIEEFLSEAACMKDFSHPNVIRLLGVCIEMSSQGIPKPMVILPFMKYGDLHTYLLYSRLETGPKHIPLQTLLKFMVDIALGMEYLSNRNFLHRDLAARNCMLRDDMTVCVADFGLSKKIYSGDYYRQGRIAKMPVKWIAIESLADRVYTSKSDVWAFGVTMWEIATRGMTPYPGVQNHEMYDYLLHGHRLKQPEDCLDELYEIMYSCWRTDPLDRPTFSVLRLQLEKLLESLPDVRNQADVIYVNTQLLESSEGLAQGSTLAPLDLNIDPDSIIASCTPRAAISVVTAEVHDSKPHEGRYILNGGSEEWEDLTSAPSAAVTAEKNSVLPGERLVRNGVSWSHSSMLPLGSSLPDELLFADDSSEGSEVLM
Series [13] relates to SARS-CoV-2 spike protein binding to ACE2. Format: cell-based, SARS-CoV-2 / human. The following applies: 1 μM, CHO-hACE2 cells, luciferase.
A further series addresses hERG (Homo sapiens, UniProt Q12809). Briefly: Standard hERG assay. Format: biochemical. Background: hERG is a cardiac potassium channel; its block is linked to QT prolongation.
The subject of the next series is influenza virus (Flu A). Format: cell-based. The following applies: for Fold of virus reduction: compared with virus control.
A short description of series [14]: in vitro. The following applies: human. This is another data set of the same source.
Series [15] relates to SARS-CoV-2. Format: cell-based. The following applies: Vero E6 cells.
Series [16] has as its system Gas6-induced phosphorylation of Akt. Briefly: Inhibition of Gas6-induced phosphorylation of Akt in A549. Format: cell-based. The following applies: human NSCLC cell line A549.
The next series relates to K562. In words: Cellular proliferation, K562. As to conditions: Homo sapiens. Format: cell-based.
The nature of series [17]: Flowscreen genotoxicity assay. Format: cell-based.
Series [18] deals with human influenza virus (FluAPR834). The following applies: Flu A, RPMI2650 cells.
Series [19] has as its system Salmonella tester strain TA98. Briefly: Ames screening test, TA98. Format: cell-based. The following applies: TA98, with and without liver S9 metabolic activation.
Description: as §2

The target in series [20] is T1, AXL. Briefly: AXL kinase inhibition. Format: biochemical.
Description: as §1

Series [21] in a line: 28-day oral gavage GLP toxicology study in Sprague-Dawley rats.
In another series the test system is A549. Briefly: Cell migration. Format: cell-based, human. The following applies: at 1 μM.
The target in series [22] is T4, MER. Briefly: MER kinase inhibition. Format: biochemical.
Description: as §1

Series [23] concerns human influenza virus (FluAPR834). Briefly: microbe, parasite or virus in culture. As to conditions: unidentified influenza virus, RPMI-2650, in Homo sapiens, 96 h, read-out: EC50 (inhibit CPE by 50%).
Setting [24] is: 28-day oral gavage, Beagle dogs.

pEC50, pIC50: −log10 of the molar value. Like-named read-outs stand apart in the source and are kept apart here.

The term pIC50 denotes −log10 of the IC50, conventionally taken in molar units. Lower therefore signals a large IC50. A word on the inhibition: it is the relative decrease from the control value, in per cent. A higher inhibition goes with a response far below the control. By NOAEL is commonly meant the highest tested level that showed no adverse finding. A word on the viability: it is the share of living cells, or the viability signal relative to a control. Low readings indicate more harm to the cells, high ones less harm to the cells. Broadly, the pEC50 is −log10 of the EC50, conventionally taken in molar units.

Chain of ALK1 (P37023 142-503 limits assumed): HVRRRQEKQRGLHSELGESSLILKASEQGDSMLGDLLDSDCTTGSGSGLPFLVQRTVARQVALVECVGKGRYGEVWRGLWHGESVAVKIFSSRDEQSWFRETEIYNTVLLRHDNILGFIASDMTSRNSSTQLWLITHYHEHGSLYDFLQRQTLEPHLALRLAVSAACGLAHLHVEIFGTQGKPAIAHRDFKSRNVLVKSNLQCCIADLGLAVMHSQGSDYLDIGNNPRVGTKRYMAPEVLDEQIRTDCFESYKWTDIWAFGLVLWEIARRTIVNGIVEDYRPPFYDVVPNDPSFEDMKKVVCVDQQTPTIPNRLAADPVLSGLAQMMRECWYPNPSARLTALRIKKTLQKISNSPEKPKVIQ

For `Nc1nc(Nc2ccc3c(c2)CC[C@@H](N2CCCC2)CC3)nn1-c1cc2c(nn1)-c1ccccc1CCC2` [BGB324], the “effect on ZEB1” value in the series with ZEB1 was “downregulates ZEB1”. In addition, the “effect against lethal Ebola virus infection” value in the series on Ebola virus was “had effect against lethal Ebola virus infection”. In addition, in the series with SARS-CoV-2 [1] (preliminary in vitro studies), the “protection from SARS-CoV-2-induced cytopathic effect” value is “protect cells from SARS-CoV-2-induced cytopathic effect”. In the series with SARS-CoV-2 [1] (subsequent studies), the “inhibition of SARS-CoV-2 infection of cells” value is on record as “potently inhibit SARS-CoV-2 infection of cells”.
As to `CCOc1ccn(-c2ccc(F)cc2)c(=O)c1C(=O)Nc1ccc(Oc2ccnc(N)c2Cl)c(F)c1` [BMS-777607], in [2], the “susceptibility of treated dendritic cells to virus infection” value is “much less susceptible to virus infection than untreated cells”. Besides, the “concentrations effectively blocking Gas6-triggered receptor activation” value with MER [3] and in the series on AXL [4] was 30 to 3600 nM throughout.
Turning to `Nc1ncc(-c2cnn(C3CCNCC3)c2)cc1-c1nnc(CC2CC2)o1` [SLC-391, 3-(5-(cyclopropylmethyl)-1,3,4-oxadiazol-2-yl)-5-(1-(piperidin-4-yl)-1H-pyrazol-4-yl)pyridin-2-amine], the pIC50 was 7.64 at ROS1; 7.92 on c-MET; 7.35 against EPHA6; 7.51 against ALK1; 7.21 on NUAK1; 7.55 on RET. In addition, the negative-log IC50 (pIC50) at Aurora C is 7.29; with 4T1, 5.98; at TYRO3 it was 7.37; on hERG, less than 4.52; in [16], 6.54; in the series with K562, 5.46. Further, the pIC50 at AXL [20] was 8.02; on MER [22], 7.20. Besides, the inhibition at 0.1 µM amounted to 69% on AXL [5], 64% on VEGFR1, 64% against FGFR3 and 61% at MER [12]. Further, the “exposure in human subjects” value in series [6] is listed as “excellent exposure”. Moreover, in series [7], the “genotoxic response, rat micronucleus assay” value was “potential genotoxic response was observed”. Besides, the “Ames screening test result” value in series [8] and in series [19] was “negative” in each case. The same molecule had an inhibition at 0.2 µM in the series with A549 cell invasion of roughly 75%. Further, the “reduction in levels of phosphorylated Akt” value in the series with phosphorylated Akt was 41%. In the series with A549 cells, the “impairment of anchorage-independent cell proliferation” value is “complete inhibition”. In addition, the “tumor growth inhibition (TGI)” value is listed as 60% in the series on tumor growth (50 mg/kg BID) and 67% in the series on tumor growth (75 mg/kg BID). Besides, the HNSTD in [9] (28-day dog GLP toxicology study, as defined in ICH S9) amounted to 6 mg/kg/day. The “effects on heart rate (HR)” value in series [9] (setting [24]) was “no effects”. In addition, the “effects on respiratory parameters” value in series [9] (setting [24]) is listed as “no SLC-391-related effects”. Moreover, the “effects on morphology of P-QRS-T complexes, PR interval, QT, QTc intervals, QRS complex duration” value in [9] (28-day oral gavage, Beagle dogs, males and females) is listed as “no observable effects”. Also, in [9] (from 6 mg/kg/day in dog), the “human equivalent dose (HED) of dog HNSTD” value came to 3.3 mg/kg. Further, the “tolerability in human subjects” value in [10] is on record as “well tolerated”. This molecule came in with a no observed adverse effect level (NOAEL) at 28 day in “in vivo” of 30 mg/kg/day. Also, the viability at 0.003 µM in “in vitro [11]” worked out at 100%. In addition, the viability at 0.4 µM in the series “in vitro [11]” amounted to 95%. The molecule further came in with a viability at 10 µM in the series “in vitro [11]” of 80%. Also, the “neutralization of SARS-CoV-2 pseudovirus” value in series [13] is listed as “completely neutralize”. For the same molecule, the values for the TCID50/mL in the series with influenza virus (Flu A) (0.003 uM), with influenza virus (Flu A) (0.4 uM) and with influenza virus (Flu A) (10 uM) were 19999 TCID50/mL, 9290 TCID50/mL and 731 TCID50/mL, respectively. Further, the “Fold of virus reduction” value worked out at 34.8 fold with influenza virus (Flu A) (0.003 uM), 74.9 fold with influenza virus (Flu A) (0.4 uM) and 952.9 fold in the series on influenza virus (Flu A) (10 uM). In “in vitro [14]”, this molecule displayed a CC50 greater than 10000 nM. In addition, the “inhibition of SARS-CoV-2 infection (qPCR cycles)” value is “effectively inhibit the viral infection” in the series on SARS-CoV-2 [15] (0.01 μM, for 24 hours) and “high degree of viral inhibition” with SARS-CoV-2 [15] (1 μM, up to 72 hours). In addition, in series [17], the Flowscreen assay classification result is “potentially genotoxic with an aneugenic mechanism of action”. The “therapeutic index (TI), TC50 divided by EC50” value in series [18] is reported as “above 71.4”. The severe toxic dose in series [21] (28-day rat GLP study, highest dose tested) turned out to be 70 mg/kg/day. For the same molecule, the “human equivalent dose (HED) of rat severe toxic dose” value in series [21] (from 70 mg/kg/day in rat) came to 11.3 mg/kg. Moreover, in the series with A549, the “reduction of cell migration” value is on record as “less than 40%”. For the same molecule, the pEC50 in series [23] was 6.85.
